# Assay results reported in patent publication US20250230193A1, “CYCLIC COMPOUND HAVING SELECTIVE KRAS INHIBITORY EFFECT ON HRAS AND NRAS” (CHUGAI SEIYAKU KABUSHIKI KAISHA, priority 2022, published 2025).
# *1 amine or outer side, *2 acyl side, *3 side chain or, on linkers, in order; H or OH if unused. Where a SMILES comes first, the peptide text is derived from it. Bridges are numbered along the chain shown (N, C = ends). [ ]: non-standard residue; d: D form. The star is where a group is joined. hPhe(3-Cl-4-CF3) = N[C@@H](CCc1ccc(C(F)(F)F)c(Cl)c1)C(=O)O; X47 = O=C([C@H](Cc1ccc(C(F)(F)F)cc1)N(CCCF)[*:1])[*:2]; NPrPhe(4-CF3) = CCCN[C@@H](Cc1ccc(C(F)(F)F)cc1)C(=O)O; X33 = CCCN([C@@H](CC(C)C)C(=O)[*:2])[*:1]; NMeGly(cPent) = CN[C@H](C(=O)O)C1CCCC1; NMeGly(cBu) = CN[C@H](C(=O)O)C1CCC1; NMeD = CN[C@@H](CC(=O)O)C(=O)O; NMeL = CN[C@@H](CC(C)C)C(=O)O; Pip = O=C(O)[C@@H]1CCCCN1; Morpholide = C1CN(*)CCO1; Ac5c = NC1(C(=O)O)CCCC1; Aze = O=C(O)[C@@H]1CCN1; Ac4c = NC1(C(=O)O)CCC1; Sar = CNCC(=O)O
# Tests used:
# [1] = target: GDP-bound HRAS wild-type protein (Homo sapiens, UniProt P01112); assay: Binding to HRAS by surface plasmon resonance (SPR), Single Cycle Kinetics; details: for HRAS/KRAS (ratio of KD value for HRAS to KD value for KRAS) / HRAS/KRAS (ratio of KD value with respect to HRAS to KD value with respect to KRAS): GDP-bound HRAS wild-type vs GDP-bound KRAS wild-type
# [2] = target: GDP-bound NRAS wild-type protein (Homo sapiens, UniProt P01111); assay: Binding to NRAS by surface plasmon resonance (SPR), Single Cycle Kinetics; details: for NRAS/KRAS (ratio of KD value for NRAS to KD value for KRAS) / NRAS/KRAS (ratio of KD value with respect to NRAS to KD value with respect to KRAS): GDP-bound NRAS wild-type vs GDP-bound KRAS wild-type
# GDP-bound NRAS wild-type protein, sequence (P01111 whole entry): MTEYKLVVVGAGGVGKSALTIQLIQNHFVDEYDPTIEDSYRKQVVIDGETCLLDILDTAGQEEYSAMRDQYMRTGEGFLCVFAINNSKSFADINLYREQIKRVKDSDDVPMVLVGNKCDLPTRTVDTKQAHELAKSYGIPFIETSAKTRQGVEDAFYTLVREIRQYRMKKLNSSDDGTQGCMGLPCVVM
# GDP-bound HRAS wild-type protein, sequence (P01112 whole entry): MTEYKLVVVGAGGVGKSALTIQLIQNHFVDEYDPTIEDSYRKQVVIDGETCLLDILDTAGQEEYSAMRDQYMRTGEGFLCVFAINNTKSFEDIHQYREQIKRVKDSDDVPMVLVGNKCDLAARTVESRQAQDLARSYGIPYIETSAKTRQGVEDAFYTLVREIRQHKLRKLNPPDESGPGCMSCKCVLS
compound,measurement,setting,value
CCCN1C(=O)CN(C)C(=O)CN(C)C(=O)[C@H]([C@@H](C)CC)NC(=O)[C@H](C2CCC2)N(C)C(=O)C[C@@H](C(=O)N2CCOCC2)N(C)C(=O)[C@H](C2CCCC2)N(C)C(=O)C2(CCCC2)NC(=O)[C@@H]2CCCN2C(=O)[C@H](CCc2ccc(C(F)(F)F)c(Cl)c2)NC(=O)CN(C)C(=O)[C@@H]1Cc1ccc(C(F)(F)F)cc1 [PP0188] ([NMeGly(cBu)]I[Sar][Sar][NPrPhe(4-CF3)][Sar][hPhe(3-Cl-4-CF3)]P[Ac5c][NMeGly(cPent)][NMeD]-Morpholide; lactam N-11),HRAS/KRAS (ratio of KD for GDP-bound HRAS wild-type to KD for KRAS),[1]; SPR,C (A compound having a KD ratio of 0.1 or more and less than 3 is denoted as C)
same,NRAS/KRAS (ratio of KD for GDP-bound NRAS wild-type to KD for KRAS),[2]; SPR,B (a compound having 3 or more and less than 10 is denoted as B)
CCCN1C(=O)[C@@H]2CCN2C(=O)[C@@H]2CCCCN2C(=O)[C@H]([C@@H](C)CC)NC(=O)[C@H](CC(C)C)N(C)C(=O)C[C@@H](C(=O)N2CCOCC2)N(C)C(=O)[C@H](C2CCCC2)N(C)C(=O)C2(CCCC2)NC(=O)[C@@H]2CCCN2C(=O)[C@H](CCc2ccc(C(F)(F)F)c(Cl)c2)NC(=O)CN(C)C(=O)[C@@H]1Cc1ccc(C(F)(F)F)cc1 [PP0077] ([NMeL]I[Pip][Aze][NPrPhe(4-CF3)][Sar][hPhe(3-Cl-4-CF3)]P[Ac5c][NMeGly(cPent)][NMeD]-Morpholide; lactam N-11),HRAS/KRAS (ratio of KD for GDP-bound HRAS wild-type to KD for KRAS),[1]; SPR,B (a compound having 3 or more and less than 10 is denoted as B)
same,NRAS/KRAS (ratio of KD for GDP-bound NRAS wild-type to KD for KRAS),[2]; SPR,C (A compound having a KD ratio of 0.1 or more and less than 3 is denoted as C)
CCO[C@@H]1C[C@H]2C(=O)NC3(CCC3)C(=O)N(C)[C@@H](C3CCCC3)C(=O)N(CC)[C@H](C(=O)N3CCOCC3)CC(=O)N(C)[C@@H](CC(C)C)C(=O)N[C@@H]([C@@H](C)CC)C(=O)N(C)CC(=O)N(C)[C@H]3CCCCCN(C3=O)[C@@H](Cc3ccc(C(F)(F)F)cc3)C(=O)N(C)CC(=O)N[C@@H](CCc3cc(F)c(C(F)(F)F)c(F)c3)C(=O)N2C1 [PP0638],HRAS/KRAS (ratio of KD value with respect to GDP-bound HRAS wild-type protein to KD value with respect to KRAS),[1]; SPR,B (a compound having 3 or more and less than 10 is denoted as B)
same,NRAS/KRAS (ratio of KD value with respect to GDP-bound NRAS wild-type protein to KD value with respect to KRAS),[2]; SPR,B (a compound having 3 or more and less than 10 is denoted as B)
CCC(CC)[C@H]1C(=O)N(C)[C@H](C(=O)N(C)C)CC(=O)N(C)[C@@H](COC)C(=O)N[C@@H]([C@@H](C)CC)C(=O)N(C)CC(=O)N(C)[C@H]2C/C=C\CCN(C2=O)[C@@H](Cc2ccc(C)cc2)C(=O)N(C)CC(=O)N[C@@H](CCc2ccc(C(F)(F)F)c(OC)c2)C(=O)N2CCCC[C@H]2C(=O)NC2(CC(C)(C)C2)C(=O)N1C [PP2937],HRAS/KRAS (ratio of KD value with respect to GDP-bound HRAS wild-type protein to KD value with respect to KRAS),[1]; class symbols,A (a compound having 10 or more and less than 20 is denoted as A)
same,NRAS/KRAS (ratio of KD value with respect to GDP-bound NRAS wild-type protein to KD value with respect to KRAS),[2]; class symbols,A (a compound having 10 or more and less than 20 is denoted as A)
CCCN1C(=O)C[C@@H](C(=O)N2CCOCC2)N(C)C(=O)[C@H](C2CCCC2)N(C)C(=O)C2(CCC2)NC(=O)[C@@H]2CCCN2C(=O)[C@H](CCc2ccc(C(F)(F)F)c(Cl)c2)NC(=O)CN(C)C(=O)[C@H](Cc2ccc(C(F)(F)F)cc2)N(CCC)C(=O)CN(C)C(=O)CN(C)C(=O)[C@H](C(C)C)NC(=O)[C@@H]1CC(C)C [PP1815] ([X33]V[Sar][Sar][NPrPhe(4-CF3)][Sar][hPhe(3-Cl-4-CF3)]P[Ac4c][NMeGly(cPent)][NMeD]-Morpholide; lactam N-11),HRAS/KRAS (ratio of KD value for HRAS to KD value for KRAS),[1]; SPR,B (a compound having 3 or more and less than 10 is denoted as B)
same,NRAS/KRAS (ratio of KD value for NRAS to KD value for KRAS),[2]; SPR,B (a compound having 3 or more and less than 10 is denoted as B)
CCO[C@@H]1C[C@H]2C(=O)NC3(CCC3)C(=O)N(C)[C@@H](C3CCCC3)C(=O)N(C)[C@H](C(=O)N(C)C)CC(=O)N(C)[C@@H](CC)C(=O)N[C@@H]([C@@H](C)CC)C(=O)N(C)CC(=O)N(C)[C@H]3CCCCN(C3=O)[C@@H](Cc3ccc(C(F)(F)F)cc3)C(=O)N(C)CC(=O)N[C@@H](CCc3ccc(OC(F)F)c(F)c3)C(=O)N2C1 [PP0986],HRAS/KRAS (ratio of KD value with respect to HRAS to KD value with respect to KRAS),[1]; SPR,C (A compound having a KD ratio of 0.1 or more and less than 3 is denoted as C)
same,NRAS/KRAS (ratio of KD value with respect to NRAS to KD value with respect to KRAS),[2]; SPR,C (A compound having a KD ratio of 0.1 or more and less than 3 is denoted as C)
CCO[C@@H]1C[C@H]2C(=O)NC3(CCC3)C(=O)N(C)[C@@H](C3CCCC3)C(=O)N(C)[C@H](C(=O)N3CCOCC3)CC(=O)N(C)[C@@H](C)C(=O)N[C@@H]([C@@H](C)CC)C(=O)N(C)CC(=O)N(C)[C@H]3CCCCN(C3=O)[C@@H](Cc3ccc(C(F)(F)F)cc3)C(=O)N(C)CC(=O)N[C@@H](CCc3cc(F)c(C(F)(F)F)c(F)c3)C(=O)N2C1 [PP0585],HRAS/KRAS (ratio of KD value with respect to GDP-bound HRAS wild-type protein to KD value with respect to KRAS),[1]; SPR,B (a compound having 3 or more and less than 10 is denoted as B)
same,NRAS/KRAS (ratio of KD value with respect to GDP-bound NRAS wild-type protein to KD value with respect to KRAS),[2]; SPR,B (a compound having 3 or more and less than 10 is denoted as B)
CCO[C@@H]1C[C@H]2C(=O)NC3(CCC3)C(=O)N(C)[C@@H](C3CCCC3)C(=O)N(C)[C@H](C(=O)N(C)C)CC(=O)N(C)[C@@H](Cc3ccccc3C#N)C(=O)N[C@@H]([C@@H](C)CC)C(=O)N(C)CC(=O)N(C)[C@H]3CCCCCN(C3=O)[C@@H](Cc3ccc(C(F)(F)F)cc3)C(=O)N(C)CC(=O)N[C@@H](CCc3cc(F)c(C(F)(F)F)c(F)c3)C(=O)N2C1 [PP1171],HRAS/KRAS (ratio of KD value with respect to HRAS to KD value with respect to KRAS),[1]; SPR,B (a compound having 3 or more and less than 10 is denoted as B)
same,NRAS/KRAS (ratio of KD value with respect to NRAS to KD value with respect to KRAS),[2]; SPR,B (a compound having 3 or more and less than 10 is denoted as B)
CCCO[C@@H]1CCN2C(=O)[C@H](CCc3cc(F)c(C(F)(F)F)c(F)c3)NC(=O)CN(C)C(=O)[C@H](Cc3ccc(C(F)(F)F)cc3)N3CCCC[C@@H](C3=O)N(C)C(=O)CN(C)C(=O)[C@H]([C@@H](C)CC)NC(=O)[C@H](CC(C)C)N(C)C(=O)C[C@@H](C(=O)N3CCOCC3)N(C)C(=O)[C@H](C3CCCC3)N(C)C(=O)C3(CCC3)NC(=O)[C@H]12 [PP1080],HRAS/KRAS (ratio of KD value with respect to HRAS to KD value with respect to KRAS),[1]; SPR,B (a compound having 3 or more and less than 10 is denoted as B)
same,NRAS/KRAS (ratio of KD value with respect to NRAS to KD value with respect to KRAS),[2]; SPR,B (a compound having 3 or more and less than 10 is denoted as B)
CC[C@H](C)[C@@H]1NC(=O)[C@H](CC(C)C)N(C)C(=O)C[C@@H](C(=O)N2CCOCC2)N(C)C(=O)[C@H](C2CCCC2)N(C)C(=O)C2(CCCC2)NC(=O)[C@@H]2CCCN2C(=O)[C@H](CCc2ccc(C(F)(F)F)c(Cl)c2)NC(=O)CN(C)C(=O)[C@H](Cc2ccc(C(F)(F)F)cc2)N(CCCF)C(=O)CN(C)C(=O)CN(C)C1=O [PP0524] ([NMeL]I[Sar][Sar][X47][Sar][hPhe(3-Cl-4-CF3)]P[Ac5c][NMeGly(cPent)][NMeD]-Morpholide; lactam N-11),HRAS/KRAS (ratio of KD value with respect to GDP-bound HRAS wild-type protein to KD value with respect to KRAS),[1]; SPR,C (A compound having a KD ratio of 0.1 or more and less than 3 is denoted as C)
same,NRAS/KRAS (ratio of KD value with respect to GDP-bound NRAS wild-type protein to KD value with respect to KRAS),[2]; SPR,B (a compound having 3 or more and less than 10 is denoted as B)
CCO[C@@H]1C[C@H]2C(=O)NC3(CC(C)(C)C3)C(=O)N(C)[C@@H](C3CCCC3)C(=O)N(C)[C@H](C(=O)N(C)C)CC(=O)N(C)[C@@H](COC)C(=O)N[C@@H]([C@@H](C)CC)C(=O)N(C)CC(=O)N(C)[C@H]3C/C=C\CCN(C3=O)[C@@H](Cc3ccc(C(F)(F)F)cc3)C(=O)N(C)CC(=O)N[C@@H](CCc3ccc(C(F)(F)F)c(Cl)c3)C(=O)N2C1 [PP1753],HRAS/KRAS (ratio of KD value for HRAS to KD value for KRAS),[1]; SPR,A (a compound having 10 or more and less than 20 is denoted as A)
same,NRAS/KRAS (ratio of KD value for NRAS to KD value for KRAS),[2]; SPR,A (a compound having 10 or more and less than 20 is denoted as A)
